Test results as given in patent US20240150303A1, “DIAMINOTRIAZINE COMPOUNDS” (BASF SE, priority 2021, published 2024).

Tests used:
Experiment in all cases: greenhouse pre-emergence herbicidal test
Type in all cases: in vivo
Amaranthus retroflexus = system: Amaranthus retroflexus
From the text: (§1) The seeds of the test plants were sown separately for each species. For the pre-emergence treatment, the active ingredients, which had been suspended or emulsified in water, were applied directly after sowing by means of finely distributing nozzles. The containers were irrigated gently to promote germination and growth and subsequently covered with transparent plastic hoods until the plants had rooted. This cover caused uniform germination of the test plants, unless this had been impaired by the active ingredients. […] The test period extended over 2 to 4 weeks. During this time, the plants were tended, and their response to the individual treatments was evaluated. Evaluation was carried out using a scale from 0 to 100. 100 means no emergence of the plants, or complete destruction of at least the aerial moieties, and 0 means no damage, or normal course of growth. A moderate herbicidal activity is given at values of at least 60, a good herbicidal activity is given at values of at least 70, and a very good herbicidal activity is given at values of at least 85. The plants used in the greenhouse experiments were of the following species: [table]

Setaria faberi = system: Setaria faberi
From the text: as §1

Alopercurus myosuroides = system: Alopercurus myosuroides
From the text: (§2) The culture containers used were plastic flowerpots containing loamy sand with approximately 3.0% of humus as the substrate. The seeds of the test plants were sown separately for each species.
(§3) For the pre-emergence treatment, the active ingredients, which had been suspended or emulsified in water, were applied directly after sowing by means of finely distributing nozzles.
(§4) The containers were irrigated gently to promote germination and growth and subsequently covered with transparent plastic hoods until the plants had rooted. This cover caused uniform germination of the test plants, unless this had been impaired by the active ingredients.
(§5) Depending on the species, the plants were kept at 10-25° C. or 20-35° C., respectively.
(§6) The test period extended over 2 to 4 weeks. During this time, the plants were tended, and their response to the individual treatments was evaluated.
(§7) Evaluation was carried out using a scale from 0 to 100. 100 means no emergence of the plants, or complete destruction of at least the aerial moieties, and 0 means no damage, or normal course of growth. A moderate herbicidal activity is given at values of at least 60, a good herbicidal activity is given at values of at least 70, and a very good herbicidal activity is given at values of at least 85.
(§8) The plants used in the greenhouse experiments were of the following species: […]

Echinocloa crus-galli = system: Echinocloa crus-galli
From the text: as §1

Abutilon theophrasti = system: Abutilon theophrasti
From the text: as §2, §3, §4, §5, §6, §7, §8

SMILES	herbicidal activity (Amaranthus retroflexus; 62 g/ha)	herbicidal activity (Setaria faberi; 62 g/ha)	herbicidal activity (Echinocloa crus-galli; 62.5 g/ha)	herbicidal activity (Setaria faberi; 62.5 g/ha)	herbicidal activity (Echinocloa crus-galli; 62 g/ha)	herbicidal activity (Abutilon theophrasti; 62 g/ha)	herbicidal activity (Amaranthus retroflexus; 62.5 g/ha)	also measured
COc1c(Br)cc(Cl)c(C)c1Nc1nc(N)nc(C(C)(F)CCl)n1 (racemic) [Example 98]	100%	100%	–	–	–	–	–	herbicidal activity (Alopercurus myosuroides; 62 g/ha): 100%
COc1c(F)cc(F)c(Cl)c1Nc1nc(N)nc(C(C)(C)F)n1 [Example 9]	–	–	–	–	–	–	–	herbicidal activity (Amaranthus retroflexus; 32 g/ha): 100%; herbicidal activity (Amaranthus retroflexus; 250 g/ha): 100%; herbicidal activity (Echinocloa crus-galli; 32 g/ha): 100%; herbicidal activity (Setaria faberi; 250 g/ha): 95%; herbicidal activity (Abutilon theophrasti; 32 g/ha): 100%; herbicidal activity (Abutilon theophrasti; 250 g/ha): 90%
COc1c(Cl)cc(Br)c(Cl)c1Nc1nc(N)nc(C(C)(C)F)n1 [Example 12]	–	–	–	–	–	–	–	herbicidal activity (Amaranthus retroflexus; 250 g/ha): 100%; herbicidal activity (Echinocloa crus-galli; 250 g/ha): 100%; herbicidal activity (Setaria faberi; 250 g/ha): 100%; herbicidal activity (Abutilon theophrasti; 250 g/ha): 100%; herbicidal activity (Alopercurus myosuroides; 250 g/ha): 100%
COc1c(F)cc(F)c(Br)c1Nc1nc(N)nc(C(C)(C)F)n1 [Example 13]	–	–	100%	100%	–	–	–	herbicidal activity (Amaranthus retroflexus; 31 g/ha): 100%; herbicidal activity (Echinocloa crus-galli; 31 g/ha): 100%; herbicidal activity (Abutilon theophrasti; 31 g/ha): 100%; herbicidal activity (Alopercurus myosuroides; 62.5 g/ha): 100%
COc1c(C)ccc(C)c1Nc1nc(N)nc(C(C)(C)F)n1 [Example 14]	100%	–	–	–	100%	100%	–	herbicidal activity (Echinocloa crus-galli; 125 g/ha): 98%; herbicidal activity (Setaria faberi; 125 g/ha): 100%; herbicidal activity (Alopercurus myosuroides; 125 g/ha): 98%
COc1c(F)cc(F)c(C(F)(F)F)c1Nc1nc(N)nc(C(C)(C)F)n1 [Example 19]	–	100%	100%	–	100%	–	100%	herbicidal activity (Abutilon theophrasti; 62.5 g/ha): 100%; herbicidal activity (Alopercurus myosuroides; 62 g/ha): 100%
COc1c(Cl)ccc(Cl)c1Nc1nc(N)nc(C(C)(C)F)n1 [Example 20]	–	100%	100%	–	100%	–	100%	herbicidal activity (Abutilon theophrasti; 62.5 g/ha): 100%; herbicidal activity (Alopercurus myosuroides; 62 g/ha): 100%
CC#CCOc1c(Br)cc(F)c(C)c1Nc1nc(N)nc(C(C)(C)F)n1 [Example 21]	–	100%	100%	100%	100%	–	95%	herbicidal activity (Alopercurus myosuroides; 62 g/ha): 100%
CC#CCOc1c(Br)cc(F)c(Cl)c1Nc1nc(N)nc(C(C)(C)F)n1 [Example 32]	–	100%	100%	–	–	100%	100%	herbicidal activity (Abutilon theophrasti; 62.5 g/ha): 100%; herbicidal activity (Alopercurus myosuroides; 62 g/ha): 100%
COc1c(Cl)cc(Cl)c(C)c1Nc1nc(N)nc(C(F)(F)F)n1 [Example 33]	–	–	98%	–	–	–	100%	herbicidal activity (Echinocloa crus-galli; 125 g/ha): 100%; herbicidal activity (Setaria faberi; 125 g/ha): 100%; herbicidal activity (Abutilon theophrasti; 62.5 g/ha): 100%; herbicidal activity (Alopercurus myosuroides; 125 g/ha): 100%
COc1c(Br)cc(Br)c(C)c1Nc1nc(N)nc(C(C)(C)F)n1 [Example 38]	–	–	100%	100%	–	–	100%	herbicidal activity (Amaranthus retroflexus; 250 g/ha): 100%; herbicidal activity (Setaria faberi; 250 g/ha): 100%; herbicidal activity (Abutilon theophrasti; 250 g/ha): 100%
COc1c(Br)cc(Cl)c(C)c1Nc1nc(N)nc(C(C)(C)F)n1 [Example 39]	100%	100%	100%	100%	–	100%	100%	–
COc1c(Br)cc(F)c(Cl)c1Nc1nc(N)nc(C2(F)CCCC2)n1 [Example 40]	–	100%	100%	100%	100%	100%	100%	–
COc1c(Br)cc(F)c(Cl)c1Nc1nc(N)nc(C(C)F)n1 (stereo not drawn) [Example 41]	–	100%	100%	100%	100%	100%	100%	–
C#CCOc1c(F)ccc(Cl)c1Nc1nc(N)nc(C(C)(C)F)n1 [Example 50]	100%	–	–	–	100%	100%	–	herbicidal activity (Amaranthus retroflexus; 31 g/ha): 100%; herbicidal activity (Setaria faberi; 31 g/ha): 100%; herbicidal activity (Abutilon theophrasti; 31 g/ha): 80%
CC#CCOc1c(F)ccc(Cl)c1Nc1nc(N)nc(C(C)(C)F)n1 [Example 51]	100%	100%	–	–	100%	100%	–	–

SMILES	herbicidal activity (Amaranthus retroflexus; 62 g/ha)	herbicidal activity (Setaria faberi; 62 g/ha)	herbicidal activity (Echinocloa crus-galli; 62.5 g/ha)	herbicidal activity (Setaria faberi; 62.5 g/ha)	herbicidal activity (Echinocloa crus-galli; 62 g/ha)	herbicidal activity (Abutilon theophrasti; 62 g/ha)	herbicidal activity (Amaranthus retroflexus; 62.5 g/ha)	also measured
COc1c(F)ccc(Cl)c1Nc1nc(N)nc(C2(F)CCCC2)n1 [Example 53]	100%	–	98%	100%	100%	100%	–	herbicidal activity (Alopercurus myosuroides; 62.5 g/ha): 90%
COc1c(F)cc(C)c(C)c1Nc1nc(N)nc(C(C)(C)F)n1 [Example 54]	100%	–	100%	–	100%	100%	–	herbicidal activity (Abutilon theophrasti; 62.5 g/ha): 100%; herbicidal activity (Alopercurus myosuroides; 62.5 g/ha): 100%
COc1c(F)cc(C)c(Cl)c1Nc1nc(N)nc(C(C)(C)F)n1 [Example 55]	–	100%	100%	–	100%	100%	100%	herbicidal activity (Abutilon theophrasti; 62.5 g/ha): 100%
CC#CCOc1c(F)cc(C)c(Cl)c1Nc1nc(N)nc(C(C)(C)F)n1 [Example 57]	100%	100%	–	–	100%	–	–	herbicidal activity (Echinocloa crus-galli; 31 g/ha): 100%; herbicidal activity (Setaria faberi; 31 g/ha): 100%; herbicidal activity (Abutilon theophrasti; 31 g/ha): 98%
COc1c(F)cc(Br)c(Cl)c1Nc1nc(N)nc(C(C)(C)F)n1 [Example 58]	100%	100%	100%	100%	100%	–	–	herbicidal activity (Abutilon theophrasti; 62.5 g/ha): 100%
CC#CCOc1c(F)cc(Br)c(Cl)c1Nc1nc(N)nc(C(C)(C)F)n1 [Example 59]	100%	100%	95%	100%	–	–	–	herbicidal activity (Abutilon theophrasti; 62.5 g/ha): 100%; herbicidal activity (Alopercurus myosuroides; 62 g/ha): 95%
COc1c(Cl)cc(Br)c(C)c1Nc1nc(N)nc(C2(F)CCCC2)n1 [Example 61]	–	85%	–	–	70%	–	–	herbicidal activity (Amaranthus retroflexus; 31 g/ha): 100%; herbicidal activity (Echinocloa crus-galli; 31 g/ha): 100%; herbicidal activity (Abutilon theophrasti; 31 g/ha): 100%; herbicidal activity (Alopercurus myosuroides; 62 g/ha): 75%
COc1c(Br)ccc(C)c1Nc1nc(N)nc(C(C)(C)F)n1 [Example 62]	100%	–	–	–	100%	100%	–	herbicidal activity (Amaranthus retroflexus; 31 g/ha): 100%; herbicidal activity (Echinocloa crus-galli; 31 g/ha): 100%; herbicidal activity (Setaria faberi; 31 g/ha): 100%
COc1c(Cl)cc(F)c(C)c1Nc1nc(N)nc(C(C)(F)CBr)n1 (stereo not drawn) [Example 66]	100%	100%	–	–	100%	100%	–	–
COc1c(Cl)cc(F)c(C)c1Nc1nc(N)nc(C(C)(F)F)n1 [Example 67]	100%	100%	–	–	100%	100%	–	–
COc1c(Cl)cc(F)c(C)c1Nc1nc(N)nc(C(C)(F)CCl)n1 (stereo not drawn) [Example 68]	100%	100%	–	–	100%	100%	–	–
COc1c(Cl)cc(F)c(C)c1Nc1nc(N)nc(C(C)F)n1 (stereo not drawn) [Example 69]	100%	100%	–	–	100%	100%	–	–
COc1c(Cl)cc(F)c(C)c1Nc1nc(N)nc(C(C)(C)F)n1 [Example 70]	100%	100%	–	–	100%	100%	–	–
COc1c(Cl)ccc(Cl)c1Nc1nc(N)nc(C(C)F)n1 (stereo not drawn) [Example 71]	100%	100%	–	–	100%	100%	–	–
COc1c(Cl)cc(Cl)c(C)c1Nc1nc(N)nc(C2(F)CC2)n1 [Example 93]	100%	100%	–	70%	100%	–	100%	herbicidal activity (Abutilon theophrasti; 62.5 g/ha): 80%
COc1c(Br)cc(Cl)c(C)c1Nc1nc(N)nc(C(C)(F)F)n1 [Example 97]	85%	85%	–	–	–	–	–	herbicidal activity (Alopercurus myosuroides; 62 g/ha): 70%
